{"source": "patent US20220187282A1", "about": "“CARDIOMYOCYTE PROLIFERATION” (The Council of the Queensland Institute of Medical Research, priority 2019, published 2022)", "key": {"[1]": {"tested_on": "adult rodent cardiomyocyte", "conditions": "Mohamed et al., 2018; cited from earlier work"}, "kinases": {"tested_on": "kinases", "conditions": "Fan et al., 2016; cited from earlier work"}, "mature hCOs": {"tested_on": "mature hCOs", "test": "mature hCO, cardiomyocyte proliferation (Ki-67 intensity, Ki-67+ α-actinin cardiomyocytes)", "assay_type": "cell-based, human", "procedure": "hCOs were cultured in CTRL medium for formation for 5 days and then either kept in CTRL medium culture or changed to maturation medium (Mills et al., 2017a) comprising DMEM without glucose, glutamine and phenol red (ThermoFisher Scientific) supplemented with 4% […](without insulin) (ThermoFisher Scientific), 1% GlutaMAX (ThermoFisher Scientific), 200 μM L-ascorbic acid 2-phosphate sesquimagnesium salt hydrate and 1% Penicillin/Streptomycin (ThermoFisher Scientific), 1 mmol/L glucose and 100 μmon palmitic acid (conjugated to bovine serum albumin within B27 by incubating for 2h at 37° C., Sigma) with changes every 2-3 days.\nWhole-Mount Immunostaining hCOs were fixed for 60 min with 1% paraformaldehyde (Sigma) at room temperature and washed 3× with PBS, after which they were incubated with primary antibodies (see Star Methods Table) in Blocking Buffer, 5% FBS and 0.2% Triton-X-100 (Sigma) in PBS overnight at 4° C. Cells were then washed in Blocking Buffer 2× for 2 h and subsequently incubated with secondary antibodies (see Star Methods Table) and Hoechst33342 (1:1000) overnight at 4° C. They were washed in Blocking Buffer 2× for 2 h and imaged in situ or mounted on microscope slides using Fluoromount-G (Southern Biotech).\nFor screening hCOs were imaged using a Leica DMi8 high content imaging microscope for in situ imaging. Custom batch processing files were written in Matlab R2013a (Mathworks) to remove the background, calculate the image intensity, and export the batch data to an Excel (Microsoft) spreadsheet.\nFor more detailed images an Olympus IX81 confocal microscope was used for mounted hCO imaging. For cell cycle analysis experiments 3 random fields of view were imaged and manually quantified for proliferation. These were added together to calculate the percentage of hPSC-CM proliferation in each hCO.\nHits were next validated in mature hCOs using a targeted concentration range based on their active concentrations in the initial immature hCO screen (FIG. 3A). Proliferation markers were quantified using high magnification confocal imaging as we found flow cytometry to be inaccurate in hCO (data not shown). Compounds 3, 63 and 65 had no impact on contractile force (FIG. 3B) at concentrations of 3 μM, 0.3 μM and 1 μM, respectively. […] The effects of both compound 3 and compound 65 were reversible, with proliferation ceasing within 5 days of compound withdrawal (FIG. 8B). Therefore, compound 3 (FIG. 3G) and compound 65 (Goldberg et al., 2009) (FIG. 3H) are both capable of inducing bona fide cardiomyocyte proliferation in mature hCOs without adversely affecting contractile properties."}, "2D hPSC-CM": {"tested_on": "2D hPSC-CM", "test": "2D hPSC-CM culture, Ki-67 image cytometry (proliferation, number, size)", "assay_type": "cell-based, human", "conditions": "24 h, 0.5 M mevalonic acid 5-phosphate, 20 μM GGPP, 20 μM FPP, 20 μM squalene", "procedure": "Day 15 dissociated differentiation cultures were plated at 100,000 cells/cm2 in 0.1% gelatin coated 96-well tissue culture plates in CTRL medium. For 3 day incubation experiments, after 2 days of culture in CTRL medium, cells were then treated with 10 μM simvastatin in maturation medium for a further 3 days. For 1 day incubation experiments, after 1 day of culture in CTRL medium, cells were treated with 10 μM simvastatin, 0.5 M (±)-Mevalonic acid 5-phosphate lithium salt hydrate, 20 μM geranylgeranyl pyrophosphate, 20 μM farnesyl pyrophosphate and/or 20 μM squalene in maturation medium for a further day.\nhCOs were fixed for 10 min with 1% paraformaldehyde (Sigma) at room temperature and washed 3× with PBS, after which they were incubated with primary antibodies (see Star Methods Table) in Blocking Buffer, 5% FBS and 0.2% Triton-X-100 (Sigma) in PBS for 1-2 hours at room temperature. Cells were then washed in Blocking Buffer 2× for 3 min and subsequently incubated with secondary antibodies (see Star Methods Table) and Hoechst33342 (1:1000) for 1 hour at room temperature. They were washed in Blocking Buffer 2× and imaged.\nFor screening hCOs were imaged using a Leica DMi8 high content imaging microscope for in situ imaging. Custom batch processing files were written in Matlab R2013a (Mathworks) to analyse the number of cardiomyocytes, identify the nuclei of proliferating (Ki-67+) cardiomyocytes and determine the average size of the cardiomyocytes, and export the batch data to an Excel (Microsoft) spreadsheet.\nInitial experiments were performed in immature proliferative 2D hPSC-CM (FIG. 6A) using high content imaging (FIG. 6B) and image cytometry analysis (FIG. 13A). HMGCR mediated production of cholesterol metabolites was inhibited with 10 μM simvastatin for 3 days.\nIn order to determine which metabolites in the mevalonate pathway are critical for proliferation, we performed experiments over 24 hours to enable more precise control of metabolites and to measure the primary effects of the manipulations. In these experiments, the mevalonate pathway was inhibited using 10 μM simvastatin, and then different metabolites were provided within the medium (highlighted in red in FIG. 6F)."}, "mature hCO": {"tested_on": "mature hCO", "test": "single organoid quantitative proteomics of mature hCO", "assay_type": "cell-based, human", "conditions": "mature hCO proteomics", "procedure": "Single hCO were washed 2× in PBS and snap frozen and stored at −80° C. Tissues were lysed in by tip-probe sonication in 1% SDS containing 100 mM Tris pH 8.0, 10 mM tris(2-carboxyethyl)phosphine, 40 mM 2-chloroacetamide and heated to 95° C. for 5 min. Proteins were purified using a modified Single-Pot Solid-Phase-enhanced Sample Preparation (SP3) strategy (Hughes et al., 2014). Briefly, Proteins were bound to Sera-Mag carboxylate coated paramagnetic beads in 50% acetonitrile containing 0.8% formic acid (v/v) (ThermoFisher Scientific). The beads were washed twice with 70% ethanol (v/v) and once with 100% acetonitrile. Proteins were digested on the beads in 100 mM Tris pH 7.5 containing 10% 2,2,2-Trifluoroethanol overnight at 37° C. with 200 ng of sequencing grade LysC (Wako Chemicals) and trypsin (Sigma). Beads were removed and peptides acidified to 1% trifluoroacetic acid prior to purification by styrene divinyl benzene-reversed phase sulfonated solid phase extraction microcolumns. Peptides were spiked with iRT peptides (Biognosys) and analysed on an Easy-nLC1200 coupled to a Q-Exactive HF in positive polarity mode. Peptides were separated using an in-house packed 75 μm×50 cm pulled column (1.9 μm particle size, C18AQ; Dr Maisch) with a gradient of 2-35% acetonitrile containing 0.1% FA over 120 min at 300 nL/min at 60° C. The instrument was operated in data-independent acquisition (DIA) mode essentially as described previously (Bruderer et al., 2017). Briefly, an MS1 scan was acquired from 350-1650 m/z (120,000 resolution, 3e6 AGC, 50 ms injection time) followed by 20 MS/MS variable sized isolation windows with HCD (30,000 resolution, 3e6 AGC, 27 NCE). A spectral library was created by fractionating a pooled mix of peptides from 10 separate hCO on an inhouse packed 320 μm×25 cm column (3 μm particle size, BEH; Waters) with a gradient of 2-40% acetonitrile containing 10 mM ammonium formate over 60 min at 6 μL/min using an Agilent 1260 HPLC. A total of 12 concatenated fractions were analysed using the identical LC-MS/MS conditions above except the instrument was operated in data-dependent acquisition (DDA) mode. Briefly, an MS1 scan was acquired from 350-1650 m/z (60,000 resolution, 3e6 AGC, 50 ms injection time) followed by 20 MS/MS with HCD (1.4 m/z isolation, 15,000 resolution, 1e5 AGC, 27 NCE). DDA data were processed with Andromeda in MaxQuant v1.5.8.3 (Cox and Mann, 2008) against the human UniProt database (January 2016) using all default settings with peptide spectral matches and protein false discovery rate (FDR) set to 1%. DIA data were processed with Spectronaut v11 (Bruderer et al., 2015) using all default settings with precursor and protein FDR set to 1% and quantification performed at MS2.\nProteomic data were Log 2 transformed and median normalised. Removal of unwanted variation method (RUV) was applied to remove any batch effects (Gagnon-Bartsch et al., 2013). Differential abundance was determined with two sample t-tests with FDR-based multiple hypothesis testing correction. GO analysis was performed with DAVID v6.8 and gene ontology terms from BP_FAT (Huang da et al., 2009) and heat-maps and hierarchical clustering was performed using GENE-E (Broad Institute).\nIn order to determine the biological processes driving the pro-proliferative effects of our hit compounds, we performed RNA-sequencing (RNA-seq) and single organoid quantitative proteomics (FIG. 4A). These analyses were performed on hCOs treated with compounds 3, 63 and 65 at concentrations of 3 μM, 0.3 μM and 1 μM, respectively. RNA-seq for hCO treated with compounds 3 and 65 clustered distinctly in principal component analysis (FIG. 4B) and regulated a total of 239 and 207 genes (FIG. 9A), respectively."}}, "note": "Structures can show the parent of a compound that is named as a salt."}
{"smiles": "NC(=O)c1ccc(-c2nc(-c3ccc4c(c3)OCO4)c(-c3ccccn3)[nH]2)cc1", "note": "[SB431542]", "values": [{"measurement": "pro-proliferative activity alone", "setting": "[1]", "result": "not sufficient"}]}
{"smiles": "CN1C(=O)c2sccc2N(C)c2nc(Nc3ccc(S(N)(=O)=O)cc3)ncc21", "note": "[XMU-MP-1, reference compound]", "values": [{"measurement": "off-target effects on cell cycle proteins", "setting": "kinases", "result": "PLK4 and AURKB"}, {"measurement": "proliferation in mature hCO in combination with GSK3 inhibition (Ki-67 intensity)", "setting": "mature hCOs; 5 μM CHIR99021 with 1 μM compound 51 or 1 μM XMU-MP-1", "result": "synergistic effect on proliferation"}]}
{"smiles": "CC(O)(CCOP(=O)(O)O)CC(=O)O", "note": "(racemic) [mevalonate, (±)-Mevalonic acid 5-phosphate lithium salt hydrate, reference compound]", "values": [{"measurement": "rescue of proliferation under 10 μM simvastatin", "setting": "2D hPSC-CM", "result": "rescued proliferation"}, {"measurement": "proliferation in mature hCO", "setting": "mature hCOs; 0.5 mM, 2 days", "result": "induces proliferation"}]}
{"smiles": "CC(C)=CCC/C(C)=C/CC/C(C)=C/CC/C=C(\\C)CC/C=C(\\C)CCC=C(C)C", "note": "[squalene]", "values": [{"measurement": "rescue of proliferation under 10 μM simvastatin", "setting": "2D hPSC-CM", "result": "not"}]}
{"smiles": "CC(C)=CCC/C(C)=C/CC/C(C)=C/COP(=O)(O)OP(=O)(O)O", "note": "[farnesyl pyrophosphate]", "values": [{"measurement": "rescue of proliferation under 10 μM simvastatin", "setting": "2D hPSC-CM", "result": "incapable of rescuing proliferation"}]}
{"smiles": "CC(C)=CCC/C(C)=C/CC/C(C)=C/CC/C(C)=C/COP(=O)(O)OP(=O)(O)O", "note": "[geranylgeranyl pyrophosphate]", "values": [{"measurement": "rescue of proliferation under 10 μM simvastatin", "setting": "2D hPSC-CM", "result": "rescued proliferation"}]}
{"smiles": "Cc1c[nH]c(-c2cnc(NCCNc3ccc(C#N)cn3)nc2-c2ccc(Cl)cc2Cl)n1", "note": "[CHIR99021, reference compound]", "values": [{"measurement": "proliferation signature proteins (cell cycle network, mevalonate enzymes, nuclear transporters)", "setting": "mature hCO", "result": "only the “cell cycle network” proteins were induced"}, {"measurement": "proliferation in mature hCO, compound individually", "setting": "mature hCOs; 5 μM CHIR99021 or 1 μM compound 51 alone", "result": "failed to activate proliferation individually"}]}
